In brackets after ≈: the same amount, converted by molar mass.
Columns and labels:
[1] = tested on: HT-29 colorectal cancer cells; experiment: In vitro cytotoxicity (MTS/MTT) of drug-loaded meshes, HT-29 cells
Method: (§1) The meshes contained either 0.01, 0.1, or 1.0 w/w % drug (SN38 or CPT-11). The camptothecin release from these meshes was tested using a cell viability assay following 24 hour treatments with camptothecin-loaded or unloaded meshes. […] Individual camptothecin-loaded and unloaded meshes were placed in permeable filter supports (Polyester membrane insert, 3.0 μm pore size; Corning Incorporated, Corning, N.Y.) and maintained in SPM. Medium was changed periodically to ensure continued drug release. […] At designated time points, subconfluent cells were harvested and seeded on 12-well plates at 30,000 cells/well in SPM. After 24 hours, filter supports and meshes were transferred from holding wells to the wells containing tumor cells in 2 mL of fresh SPM. After 24 hours of co-incubation with tumor cells, films were returned to holding wells in fresh SPM until the subsequent time point. Five days after treatment, tumor cell viability was measured using a colorimetric MTT (3-(4,5-dimethyl-2-thiazolyl)-2,5-diphenyltetrazolium bromide) cell proliferation assay (Sigma, St. Louis, Mo.). Cell viability was calculated as the percentage of the positive control absorbance for each cell line at each time point.

[2] = Lactone form of SN-38 released from meshes; conditions: control, bolus of SN-38 added to pH 6.4 PBS for an hour
Method: An additional release study was performed to determine if the active form of SN-38 was preserved within electrospun meshes.

[3] = tested on: Lewis Lung Carcinoma (LLC) cells; experiment: Cell viability (MTT) after 24 hour treatments with drug-loaded meshes, LLC cells
Method: as §1

In the case of `CCc1c2c(nc3ccc(O)cc13)-c1cc3c(c(=O)n1C2)COC(=O)[C@]3(O)CC` [SN-38, 7-ethyl-10-hydroxycamptothecin], the IC50 [1] is reported as 3.4 ng/mL (≈ 8.66 nM), the “SN-38 remaining in the active lactone form” value [2] is reported as 73% and the IC-50 [3] is reported as “≈ 8 ng/mL”.
